This data set in a line: Log P by HPLC on reversed phase columns (EEC directive 79/831 Annex V.A8). In kind it is physicochemical. The procedure:
Measurement of Log P values was performed according to EEC directive 79/831 Annex V.A8 by HPLC (High Performance Liquid Chromatography) on reversed phase columns with the following methods: • [^a]
If more than one Log P value is available within the same method, all the values are given and separated by “+”.
Calibration was done with straight-chain alkan2-ones (with 3 to 16 carbon atoms) with known Log P values (measurement of Log P values using retention times with linear interpolation between successive alkanones). Lambda-max-values were determined using UV-spectra from 200 nm to 400 nm and the peak values of the chromatographic signals.

Where [1] appears, read: reversed phase HPLC columns, method [a]: LC-UV, acidic range, 0.1% formic acid in water and acetonitrile, compounds of formula (I), read-out: Log P.
Where [2] appears, read: method [a]: LC-UV, acidic range, 0.1% formic acid in water and acetonitrile, compounds of formula (I), read-out: Log P.

Structures are written as SMILES. Where two headings read alike, the source gives them in different places.

Consider `FC(F)(F)c1nc(-c2ccc3nn(Cc4ccccc4)cc3c2)no1` [IV-15, 2-Benzyl-5-[5-(trifluoromethyl)-1,2,4-oxadiazol-3-yl]-1H-indazole], for which the chromatographic logP (reversed phase HPLC columns, method [a]: LC-UV, acidic range, 0.1% formic acid in water and acetonitrile, intermediates of formula (IV), read-out: LogP) is 4.03.

For `FC(F)(F)C1NC(c2ccc3nn(Cc4ccccc4)cc3c2)=NO1` (stereo not shown) [Compound I-24, 2-Benzyl-5-[(trifluoromethyl)-4,5-dihydro-1,2,4-oxadiazol-3-yl]-2H-indazole], the chromatographic logP under setting [1] turned out to be 2.69.

On to `CC(=O)N1C(c2ccc(OC(=O)N(C)C)cc2)=NOC1C(F)(F)F` (stereo not shown) [Compound I-16, 4-[Acetyl-5-(trifluoromethyl)-4,5-dihydro-1,2,4-oxadiazol-3-yl]phenyl dimethylcarbamate], for which the chromatographic logP under setting [2] turned out to be 2.62.

As to `CN(C)C(=O)Oc1ccc(-c2noc(C(F)(F)F)n2)cc1` [IV-05, 4-[5-(Trifluoromethyl)-1,2,4-oxadiazol-3-yl]phenyl dimethylcarbamate], the chromatographic logP (method [a]: LC-UV, acidic range, 0.1% formic acid in water and acetonitrile, intermediates of formula (IV), read-out: LogP) came to 3.37.

For the molecule `CN(C)C(=O)Oc1ccc(C2=NOC(C(F)(F)F)N2)cc1` (stereo not shown) [Compound I-03, 4-[5-(Trifluoromethyl)-4,5-dihydro-1,2,4-oxadiazol-3-yl]phenyl dimethylcarbamate], under setting [2], the chromatographic logP worked out at 2.19.

Take `FC(F)(F)C1NC(c2ccc3c(cnn3Cc3ccccc3)c2)=NO1` (stereo not shown) [Compound I-23, 1-Benzyl-5-[(trifluoromethyl)-4,5-dihydro-1,2,4-oxadiazol-3-yl]-2H-indazole]: the chromatographic logP under setting [1] was 3.

`FC(F)(F)c1nc(-c2ccc3c(cnn3Cc3ccccc3)c2)no1` [IV-17, 1-Benzyl-5-[5-(trifluoromethyl)-1,2,4-oxadiazol-3-yl]-1H-indazole] came in with a chromatographic logP of 4.39.

The record behind these values is US20210147371A1, “OXADIAZOLINE DERIVATIVES” (Bayer Aktiengesellschaft, priority 2018, published 2021).
